Key:
[1] = test system: CYP2D6; settings: cited from earlier work
[2] = Treatment switch from fluoxetine to an alternative antidepressant (proxy for therapeutic failure) by CYP2D6 phenotype; assay type: in vivo, human; settings: adult patients; for Switch to alternative antidepressant, Frequency (%): within one year after last fluoxetine measurement
Description: Consequently, an antidepressant switch was used as a proxy marker for therapeutic failure, regardless of the cause.
IBM SPSS Statistics version 28.0.1.1 (SPSS Inc, Chicago, IL) was used for statistical analysis and graphical presentations. Continuous variables were reported as median (range). The associations between CYP2D6 phenotype and pharmacokinetic measures such as absolute concentrations, C/D ratios and metabolic ratios were examined using Kruskal–Wallis test followed by Bonferroni-corrected Dunn’s test using CYP2D6 NMs as reference group. […] A p value below 0.05 was considered statistically significant.

[3] = cited from earlier work
[4] = cited from earlier work; remark: listed apart in the source
[5] = test system: serotonin reuptake; settings: cited from earlier work

SMILES	Type of CYP2D6 inhibition [1]	Switch to alternative antidepressant where genotyping was not performed within the switch period, Frequency (%) ([2]; CYP2D6 IMs (n = 347))	Switch to alternative antidepressant where genotyping was not performed within the switch period, Frequency (%) ([2]; CYP2D6 NMs (n = 587))	Switch to alternative antidepressant where genotyping was not performed within the switch period, Frequency (%) ([2]; CYP2D6 PMs (n = 68))	Switch to alternative antidepressant where genotyping was not performed within the switch period, Frequency (%) ([2]; CYP2D6 UMs (n = 25))	Switch to alternative antidepressant where genotyping was not performed within the switch period, Frequency (%) ([2]; Total (n = 1027))	Switch to alternative antidepressant, Frequency (%) ([2]; CYP2D6 IMs (n = 347))	Switch to alternative antidepressant, Frequency (%) ([2]; CYP2D6 NMs (n = 587))	Switch to alternative antidepressant, Frequency (%) ([2]; CYP2D6 PMs (n = 68))	Switch to alternative antidepressant, Frequency (%) ([2]; CYP2D6 UMs (n = 25))	Switch to alternative antidepressant, Frequency (%) ([2]; Total (n = 1027))	Elimination half-life [3]	Distribution to the brain [4]	Potency as SSRI relative to R-norfluoxetine [5]
CNCCC(Oc1ccc(C(F)(F)F)cc1)c1ccccc1 (stereo not drawn) [fluoxetine]	competitive and reversible inhibitors	6.3	6.6	10.3	12.0	6.9	8.6	8.3	19.1	24.0	9.5	one to four	more distributed to the brain than norfluoxetine	
NCCC(Oc1ccc(C(F)(F)F)cc1)c1ccccc1 (stereo not drawn) [norfluoxetine]	competitive and reversible inhibitors													
NCC[C@H](Oc1ccc(C(F)(F)F)cc1)c1ccccc1 [S-norfluoxetine]														approximately 20 times

From PMC12511196 (European Journal of Clinical Pharmacology, 2025)
